Reference: patent US20100227859A1, “TRICYCLIC COMPOUNDS AS MATRIX METALLOPROTEINASE INHIBITORS” (priority 2007, published 2010)

Target: purified human MMP-12 enzyme (Homo sapiens, UniProt P39900)
Assay: MMP-12 FRET assay
Type: biochemical
Conditions: substrate 20 μM, room temperature
Procedure, shortened: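 Initial fluorescence rate (325/395 nm) of cleavage of MCA-Pro-Leu-Gly-Leu-Dpa(DNP)-Ala-Arg, 20 μM final, was followed for 30 min at room temperature after a 30 min enzyme–compound preincubation. Buffer: 50 mM HEPES pH 7.4, 100 mM NaCl, 5 mM CaCl2, 0.005% Brij-35, with 10% final DMSO. IC50 came from a Hill-type fit of rate versus inhibitor concentration.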

Sequence of purified human MMP-12 enzyme (P39900 106-470): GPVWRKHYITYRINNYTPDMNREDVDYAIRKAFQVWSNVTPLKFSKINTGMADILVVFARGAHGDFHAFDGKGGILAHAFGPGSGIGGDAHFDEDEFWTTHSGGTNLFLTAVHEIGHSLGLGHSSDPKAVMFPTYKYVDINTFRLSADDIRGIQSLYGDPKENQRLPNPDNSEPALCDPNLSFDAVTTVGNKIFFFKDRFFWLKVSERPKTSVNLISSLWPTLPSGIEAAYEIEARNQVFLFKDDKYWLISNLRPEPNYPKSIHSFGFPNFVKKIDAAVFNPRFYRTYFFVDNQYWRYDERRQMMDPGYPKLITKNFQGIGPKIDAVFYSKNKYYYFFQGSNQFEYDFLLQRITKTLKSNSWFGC

| SMILES | IC50 |
| --- | --- |
| CCCc1ccc(-c2ccc3c(c2)oc2ccc(S(=O)(=O)N[C@@H](C(=O)O)C(C)C)cc23)s1 [Compound 243, (R)-3-methyl-2-(7-(5-propylthiophen-2-yl)dibenzo[b,d]furan-2-sulfonamido)butanoic acid] | 1.5 nM |
| CC(C)Cc1ncc(-c2ccc3c(c2)oc2ccc(S(=O)(=O)N[C@@H](C(=O)O)C(C)C)cc23)s1 [Compound 244, (R)-2-(7-(2-isobutylthiazol-5-yl)dibenzo[b,d]furan-2-sulfonamido)-3-methylbutanoic acid] | 3.4 nM |
| Cc1nc(CC(C)C)sc1-c1ccc2c(c1)oc1ccc(S(=O)(=O)N[C@@H](C(=O)O)C(C)C)cc12 [Compound 245, (R)-2-(7-(2-isobutyl-4-methylthiazol-5-yl)dibenzo[b,d]furan-2-sulfonamido)-3-methylbutanoic acid] | 13 nM |
| CCCc1ccc(-c2ccc3c(c2)oc2ccc(S(=O)(=O)N[C@H](C(=O)O)C(C)C)cc23)s1 [Compound 246, (S)-3-methyl-2-(7-(5-propylthiophen-2-yl)dibenzo[b,d]furan-2-sulfonamido)butanoic acid] | 6.2 nM |
| Cc1nc(CC(C)C)sc1-c1ccc2c(c1)oc1ccc(S(=O)(=O)N[C@H](C(=O)O)C(C)C)cc12 [Compound 247, (S)-2-(7-(2-isobutyl-4-methylthiazol-5-yl)dibenzo[b,d]furan-2-sulfonamido)-3-methylbutanoic acid] | 131 nM |
| CC(C)Cc1ncc(-c2ccc3oc4cc(S(=O)(=O)N[C@H](C(=O)O)C(C)C)ccc4c3c2)s1 [Compound 248, (S)-2-(8-(2-isobutylthiazol-5-yl)dibenzo[b,d]furan-3-sulfonamido)-3-methylbutanoic acid] | < 1.5 nM |
| CC(C)Cc1ncc(-c2ccc3c(c2)oc2cc(S(=O)(=O)N[C@H](C(=O)O)C(C)C)ccc23)s1 [Compound 249, (S)-2-(7-(2-isobutylthiazol-5-yl)dibenzo[b,d]furan-3-sulfonamido)-3-methylbutanoic acid] | 7.8 nM |
| CC(C)[C@H](NS(=O)(=O)c1ccc2c(c1)oc1cc(-c3nnn[nH]3)ccc12)C(=O)O [Compound 250, (S)-2-(7-(1H-tetrazol-5-yl)dibenzo[b,d]furan-3-sulfonamido)-3-methylbutanoic acid] | 239 nM |
| O=C(O)CNS(=O)(=O)c1ccc2c(c1)oc1ccc(-c3nccs3)cc12 [Compound 251, 2-(8-(thiazol-2-yl)dibenzo[b,d]furan-3-sulfonamido)acetic acid] | 17 nM |
| CC(C)C[C@H](NS(=O)(=O)c1ccc2c(c1)oc1ccc(-c3noc(C(C)(C)C)n3)cc12)C(=O)O [Compound 252, (S)-2-(8-(5-tert-butyl-1,2,4-oxadiazol-3-yl)dibenzo[b,d]furan-3-sulfonamido)-4-methylpentanoic acid] | 12 nM |
| CC(C)C[C@@H](NS(=O)(=O)c1ccc2c(c1)oc1ccc(-c3noc(C(C)(C)C)n3)cc12)C(=O)O [Compound 253, (R)-2-(8-(5-tert-butyl-1,2,4-oxadiazol-3-yl)dibenzo[b,d]furan-3-sulfonamido)-4-methylpentanoic acid] | 17 nM |
| CC(C)(C)c1nc(-c2ccc3oc4cc(S(=O)(=O)N[C@H](C(=O)O)c5ccccc5)ccc4c3c2)no1 [Compound 254, (S)-2-(8-(5-tert-butyl-1,2,4-oxadiazol-3-yl)dibenzo[b,d]furan-3-sulfonamido)-2-phenylacetic acid] | 21 nM |
| CC(C)(C)c1nc(-c2ccc3oc4cc(S(=O)(=O)N[C@@H](C(=O)O)c5ccccc5)ccc4c3c2)no1 [Compound 255, (R)-2-(8-(5-tert-butyl-1,2,4-oxadiazol-3-yl)dibenzo[b,d]furan-3-sulfonamido)-2-phenylacetic acid] | 21 nM |
| CC(C)(C)c1nc(-c2ccc3oc4cc(S(=O)(=O)N[C@H](Cc5c[nH]c6ccccc56)C(=O)O)ccc4c3c2)no1 [Compound 256, (R)-2-(8-(5-tert-butyl-1,2,4-oxadiazol-3-yl)dibenzo[b,d]furan-3-sulfonamido)-3-(1H-indol-3-yl)propanoic acid] | 129 nM |
| CC(C)(C)c1nc(-c2ccc3oc4cc(S(=O)(=O)N[C@H](C(=O)O)C(C)(C)C)ccc4c3c2)no1 [Compound 257, (S)-2-(8-(5-tert-butyl-1,2,4-oxadiazol-3-yl)dibenzo[b,d]furan-3-sulfonamido)-3,3-dimethylbutanoic acid] | 9.1 nM |
| CC(C)[C@H](NS(=O)(=O)c1ccc2c(c1)oc1ccc(-c3noc(C4CCOCC4)n3)cc12)C(=O)O [Compound 260, (S)-3-methyl-2-(8-(5-(tetrahydro-2H-pyran-4-yl)-1,2,4-oxadiazol-3-yl)dibenzo[b,d]furan-3-sulfonamido)butanoic acid] | 1.7 nM |
| CC(C)[C@H](NS(=O)(=O)c1ccc2c(c1)oc1ccc(-c3noc(CC(C)(C)C)n3)cc12)C(=O)O [Compound 261, (S)-3-methyl-2-(8-(5-neopentyl-1,2,4-oxadiazol-3-yl)dibenzo[b,d]furan-3-sulfonamido)butanoic acid] | 5.4 nM |

| SMILES | IC50 |
| --- | --- |
| CC(C)[C@H](NS(=O)(=O)c1ccc2c(c1)oc1ccc(-c3noc(C4CCCC4)n3)cc12)C(=O)O [Compound 263, (S)-2-(8-(5-cyclopentyl-1,2,4-oxadiazol-3-yl)dibenzo[b,d]furan-3-sulfonamido)-3-methylbutanoic acid] | 2.5 nM |
| CC(C)[C@H](NS(=O)(=O)c1ccc2c(c1)oc1ccc(-c3noc(-c4cccs4)n3)cc12)C(=O)O [Compound 264, (S)-3-methyl-2-(8-(5-(thiophen-2-yl)-1,2,4-oxadiazol-3-yl)dibenzo[b,d]furan-3-sulfonamido)butanoic acid] | < 1.5 nM |
| CC(C)[C@H](NS(=O)(=O)c1ccc2c(c1)oc1ccc(-c3noc(Cc4ccccc4)n3)cc12)C(=O)O [Compound 266, (S)-2-(8-(5-benzyl-1,2,4-oxadiazol-3-yl)dibenzo[b,d]furan-3-sulfonamido)-3-methylbutanoic acid] | 4 nM |
| CC(C)[C@H](NS(=O)(=O)c1ccc2c(c1)oc1ccc(-c3noc(-c4ccc(F)cc4F)n3)cc12)C(=O)O [Compound 269, (S)-2-(8-(5-(2,4-difluorophenyl)-1,2,4-oxadiazol-3-yl)dibenzo[b,d]furan-3-sulfonamido)-3-methylbutanoic acid] | < 1.5 nM |
| CC(C)[C@H](NS(=O)(=O)c1ccc2c(c1)oc1ccc(-c3noc(-c4ccc(Cl)cc4Cl)n3)cc12)C(=O)O [Compound 270, (S)-2-(8-(5-(2,4-dichlorophenyl)-1,2,4-oxadiazol-3-yl)dibenzo[b,d]furan-3-sulfonamido)-3-methylbutanoic acid] | < 1.5 nM |
| CC(C)[C@H](NS(=O)(=O)c1ccc2c(c1)oc1ccc(-c3noc(-c4ccc(C(F)(F)F)cc4)n3)cc12)C(=O)O [Compound 271, (S)-3-methyl-2-(8-(5-(4-(trifluoromethyl)phenyl)-1,2,4-oxadiazol-3-yl)dibenzo[b,d]furan-3-sulfonamido)butanoic acid] | 3.7 nM |
| CC(C)[C@H](NS(=O)(=O)c1ccc2c(c1)oc1ccc(-c3noc(-c4ccc(F)cc4)n3)cc12)C(=O)O [Compound 272, (S)-2-(8-(5-(4-fluorophenyl)-1,2,4-oxadiazol-3-yl)dibenzo[b,d]furan-3-sulfonamido)-3-methylbutanoic acid] | < 1.5 nM |
| CC(C)[C@H](NS(=O)(=O)c1ccc2c(c1)oc1ccc(C(=O)O)cc12)C(=O)O [Compound 273, (S)-7-(N-(1-carboxy-2-methylpropyl)sulfamoyl)dibenzo[b,d]furan-2-carboxylic acid] | 210 nM |
| CC(C)(C)c1nc(-c2ccc3c(c2)oc2ccc(S(=O)(=O)NCC(=O)O)cc23)no1 [Compound 274, 2-(7-(5-tert-butyl-1,2,4-oxadiazol-3-yl)dibenzo[b,d]furan-2-sulfonamido)acetic acid] | 60 nM |
| CC(C)(C)c1nc(-c2ccc3c(c2)oc2ccc(S(=O)(=O)N[C@H](Cc4ccccc4)C(=O)O)cc23)no1 [Compound 275, (R)-2-(7-(5-tert-butyl-1,2,4-oxadiazol-3-yl)dibenzo[b,d]furan-2-sulfonamido)-3-phenylpropanoic acid] | 4.1 nM |
| CC(C)[C@H](NS(=O)(=O)c1ccc2oc3cc(-c4noc(C(C)(C)C)n4)ccc3c2c1)C(=O)O [Compound 276, (S)-2-(7-(5-tert-butyl-1,2,4-oxadiazol-3-yl)dibenzo[b,d]furan-2-sulfonamido)-3-methylbutanoic acid] | 34 nM |
| CC(C)(NS(=O)(=O)c1ccc2oc3cc(-c4noc(C(C)(C)C)n4)ccc3c2c1)C(=O)O [Compound 277, 2-(7-(5-tert-butyl-1,2,4-oxadiazol-3-yl)dibenzo[b,d]furan-2-sulfonamido)-2-methylpropanoic acid] | 130 nM |
| CC(C)C[C@@H](NS(=O)(=O)c1ccc2oc3cc(-c4noc(C(C)(C)C)n4)ccc3c2c1)C(=O)O [Compound 278, (R)-2-(7-(5-tert-butyl-1,2,4-oxadiazol-3-yl)dibenzo[b,d]furan-2-sulfonamido)-4-methylpentanoic acid] | 7.2 nM |
| CC(C)C[C@H](NS(=O)(=O)c1ccc2oc3cc(-c4noc(C(C)(C)C)n4)ccc3c2c1)C(=O)O [Compound 279, (S)-2-(7-(5-tert-butyl-1,2,4-oxadiazol-3-yl)dibenzo[b,d]furan-2-sulfonamido)-4-methylpentanoic acid] | 61 nM |
| CC(C)(C)c1nc(-c2ccc3c(c2)oc2ccc(S(=O)(=O)N[C@@H](Cc4c[nH]c5ccccc45)C(=O)O)cc23)no1 [Compound 280] | 15 nM |
| CC(C)(C)c1nc(-c2ccc3c(c2)oc2ccc(S(=O)(=O)N[C@H](C(=O)O)c4ccccc4)cc23)no1 [Compound 281, (S)-2-(7-(5-tert-butyl-1,2,4-oxadiazol-3-yl)dibenzo[b,d]furan-2-sulfonamido)-2-phenylacetic acid] | 90 nM |
| CC(C)(C)c1nc(-c2ccc3c(c2)oc2ccc(S(=O)(=O)N[C@H](C(=O)O)C(C)(C)C)cc23)no1 [Compound 282, (S)-2-(7-(5-tert-butyl-1,2,4-oxadiazol-3-yl)dibenzo[b,d]furan-2-sulfonamido)-3,3-dimethylbutanoic acid] | 150 nM |
